Series [1] in a line: Inhibition of N-terminal 6His-tagged human TEAD1 YAP-binding domain (219 to 435 residues) expressed in Escherichia coli BL21 (DE3).
The target of series [2] is T1, Transcriptional enhancer factor TEF-1 (Homo sapiens, UniProt P28347). The series can be described thus: Inhibition of N-terminal 6His-tagged human TEAD1 YAP-binding domain (209 to 426 residues) expressed in Escherichia coli BL21 (DE3).
The next series has as its system LN-18. The series can be described thus: Antitumor activity against human LN-18 cells assessed as reduction in cell growth incubated for 72 hrs in presence of sirtuins inhibitor by crystal violet staining based analysis. It is filed as functional. To be noted: LN-18, 72 h.
For series [3], the target named is T2, Carnitine O-palmitoyltransferase 1, liver isoform (Homo sapiens, UniProt P50416).
T2 sequence (P50416 whole entry): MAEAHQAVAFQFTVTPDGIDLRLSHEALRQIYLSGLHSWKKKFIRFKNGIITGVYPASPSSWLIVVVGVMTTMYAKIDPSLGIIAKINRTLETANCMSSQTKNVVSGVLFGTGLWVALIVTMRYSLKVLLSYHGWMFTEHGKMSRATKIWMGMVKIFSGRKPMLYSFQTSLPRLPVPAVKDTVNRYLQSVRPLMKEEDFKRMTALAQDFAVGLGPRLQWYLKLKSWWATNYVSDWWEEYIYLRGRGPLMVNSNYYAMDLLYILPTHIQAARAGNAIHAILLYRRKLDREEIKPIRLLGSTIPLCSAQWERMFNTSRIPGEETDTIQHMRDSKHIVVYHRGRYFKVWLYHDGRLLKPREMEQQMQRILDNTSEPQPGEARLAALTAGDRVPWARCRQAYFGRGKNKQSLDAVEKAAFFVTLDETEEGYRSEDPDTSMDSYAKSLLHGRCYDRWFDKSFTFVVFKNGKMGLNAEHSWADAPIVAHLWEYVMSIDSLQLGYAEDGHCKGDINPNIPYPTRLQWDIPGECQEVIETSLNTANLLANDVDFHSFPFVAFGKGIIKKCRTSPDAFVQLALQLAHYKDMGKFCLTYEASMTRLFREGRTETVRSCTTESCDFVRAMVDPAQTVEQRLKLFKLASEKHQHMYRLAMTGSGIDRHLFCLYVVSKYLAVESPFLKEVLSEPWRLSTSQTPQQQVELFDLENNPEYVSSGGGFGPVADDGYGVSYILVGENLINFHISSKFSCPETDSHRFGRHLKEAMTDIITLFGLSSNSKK
The series can be described thus: Inhibition of CPT1A (unknown origin).

The target in series [4] is T3, Carnitine O-palmitoyltransferase 1, muscle isoform (Homo sapiens, UniProt Q92523).
T3 sequence (Q92523 whole entry): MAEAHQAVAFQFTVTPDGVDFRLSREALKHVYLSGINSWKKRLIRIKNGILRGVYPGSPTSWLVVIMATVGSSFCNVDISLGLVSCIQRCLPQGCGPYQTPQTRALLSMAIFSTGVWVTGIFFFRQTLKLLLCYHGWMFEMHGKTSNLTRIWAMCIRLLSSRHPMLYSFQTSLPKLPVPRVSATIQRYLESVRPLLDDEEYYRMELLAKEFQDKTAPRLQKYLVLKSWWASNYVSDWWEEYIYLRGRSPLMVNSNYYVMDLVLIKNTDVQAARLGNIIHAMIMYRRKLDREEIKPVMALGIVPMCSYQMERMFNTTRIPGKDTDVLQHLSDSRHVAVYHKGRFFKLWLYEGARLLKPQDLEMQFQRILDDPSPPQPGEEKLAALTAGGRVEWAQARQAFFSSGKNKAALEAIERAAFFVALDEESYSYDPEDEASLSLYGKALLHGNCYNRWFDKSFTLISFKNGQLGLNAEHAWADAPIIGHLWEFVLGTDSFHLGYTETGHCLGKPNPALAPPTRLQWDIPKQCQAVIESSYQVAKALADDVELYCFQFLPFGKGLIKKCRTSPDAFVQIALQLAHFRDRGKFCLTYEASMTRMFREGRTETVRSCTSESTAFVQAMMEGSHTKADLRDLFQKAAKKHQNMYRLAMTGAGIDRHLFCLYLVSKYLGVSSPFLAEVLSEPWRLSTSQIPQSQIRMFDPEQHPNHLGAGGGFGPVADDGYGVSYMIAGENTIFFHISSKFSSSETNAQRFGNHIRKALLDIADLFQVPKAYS
The series can be described thus: Inhibition of CPT1B (unknown origin).

The target in series [5] is Carnitine O-palmitoyltransferase 2, mitochondrial (Homo sapiens, UniProt P23786). The series can be described thus: Inhibition of human CPT2.
Series [6] addresses T2, Carnitine O-palmitoyltransferase 1, liver isoform. The series can be described thus: Inhibition of human CPT1.
Series [7] in a line: Inhibition of Candida albicans serine palmitoyltransferase.
The target of series [8] is Tyrosine-protein kinase Lck (Homo sapiens, UniProt P06239). The series can be described thus: Inhibition of N-terminal human recombinant Lck expressed in baculovirus infected in Sf9 cells.
Series [9] concerns the target T4, Carnitine O-palmitoyltransferase 1, liver isoform (Rattus norvegicus, UniProt P32198).
T4 sequence (P32198 whole entry): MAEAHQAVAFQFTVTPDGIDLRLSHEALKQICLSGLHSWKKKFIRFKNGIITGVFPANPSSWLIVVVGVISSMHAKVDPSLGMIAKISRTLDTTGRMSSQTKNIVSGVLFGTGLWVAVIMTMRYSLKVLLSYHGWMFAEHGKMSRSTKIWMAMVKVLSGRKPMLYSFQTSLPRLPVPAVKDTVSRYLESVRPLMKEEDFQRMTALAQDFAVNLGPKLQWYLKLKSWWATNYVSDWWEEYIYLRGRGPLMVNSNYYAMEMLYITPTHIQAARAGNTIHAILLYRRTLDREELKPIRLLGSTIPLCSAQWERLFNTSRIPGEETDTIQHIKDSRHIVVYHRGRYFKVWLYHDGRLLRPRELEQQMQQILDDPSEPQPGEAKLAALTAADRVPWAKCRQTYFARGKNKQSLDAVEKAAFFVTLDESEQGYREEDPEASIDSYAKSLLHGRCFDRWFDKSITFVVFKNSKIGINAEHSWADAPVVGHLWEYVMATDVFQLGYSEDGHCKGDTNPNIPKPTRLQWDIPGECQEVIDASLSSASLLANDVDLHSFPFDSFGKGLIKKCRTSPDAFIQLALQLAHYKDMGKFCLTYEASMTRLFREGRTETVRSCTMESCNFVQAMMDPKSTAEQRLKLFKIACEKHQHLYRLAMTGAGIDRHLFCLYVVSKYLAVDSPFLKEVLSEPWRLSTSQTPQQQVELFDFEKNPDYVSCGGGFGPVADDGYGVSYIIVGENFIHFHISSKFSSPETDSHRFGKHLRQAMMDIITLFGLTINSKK
Briefly: Binding affinity to rat liver mitochondria CPT1 assessed as inhibition constant incubated for 3 to 6 mins by Liquid scintillation counting method.

Series [10] can be described thus: Half life in mouse by LC-MS/MS analysis. It is filed as ADME. As to conditions: in vivo, route po.
Series [11] concerns the target Serine palmitoyltransferase small subunit B (Homo sapiens, UniProt Q8NFR3). The series can be described thus: Inhibition of SPTSSB (unknown origin) expressed in HEK293T cells. It is filed as cell-based.
Series [12] deals with Palmitoyltransferase ZDHHC3 (Homo sapiens, UniProt Q9NYG2). Briefly: Inhibition of ZDHHC3 (unknown origin).
Series [13] deals with Palmitoyltransferase ZDHHC7 (Homo sapiens, UniProt Q9NXF8). The series can be described thus: Inhibition of ZDHHC7 (unknown origin).
Another series relates to MCF7. Briefly: Antiproliferative activity against human MCF7 cells assessed as reduction in cell growth measured after 72 hrs by MTT assay. To be noted: MCF7, 72 h. It is filed as functional, cell-based.
For the next series, the species on record is Homo sapiens. Briefly: Inhibition of ZDHHC (unknown origin) at 20 uM relative to control.
In series [14] the target is T5, Protein-cysteine N-palmitoyltransferase HHAT (Homo sapiens, UniProt Q5VTY9). Briefly: Binding affinity to His-tagged HHAT (unknown origin) transfected in HEK293FT cells assessed as inhibition constant. It is filed as cell-based.
For series [15], the target named is T5, Protein-cysteine N-palmitoyltransferase HHAT. Briefly: Inhibition of HHAT (unknown origin).
Series [16] in a line: Inhibition of SPT (unknown origin). Also on record: species or system Homo sapiens.
Series [17] is described as follows: Inhibition of SPT in mouse Neuro2a cells. It is filed as cell-based.
For the next series, the system named is Plasmodium falciparum. Briefly: […] activity against Plasmodium falciparum assessed as reduction in microbial growth. It is filed as functional.
In the next series the test system is CCF-STTG1. The series can be described thus: Antiproliferative activity against human CCF-STTG1 cells assessed as reduction in cell growth. It is filed as functional, cell-based.
Series [18] can be described thus: Binding affinity to SPT (unknown origin) assessed as inhibition constant. Further details: species or system Homo sapiens.
The target in series [19] is Non-structural protein 4b (Hepacivirus hominis, UniProt F5B4I0). The series can be described thus: Inhibition of Hepatitis C virus genotype 1a NS4B.
For series [20], the target named is T2, Carnitine O-palmitoyltransferase 1, liver isoform. The series can be described thus: Inhibition of CPT1 (unknown origin).
Series [21] shares this target. Briefly: Binding affinity to CPT1 (unknown origin) assessed as inhibition constant.
The target of series [22] is T1, Transcriptional enhancer factor TEF-1. The series can be described thus: Inhibition of N-terminal His-tagged human TEAD1 expressed in Escherichia coli BL21 (DE3) (209 to 424 residues) by affinity chromatography analysis.
Series [23] deals with NCI-H226. The series can be described thus: Antitumor activity against human NCI-H226 cells xenografted in CDX mouse model assessed as reduction in tumor growth at 75 mg/kg relative to control. It is filed as functional. Further details: scale not given: the % may be the effect or the level left. (A xenograft is tissue or cells of one species grown in another, often human tumour cells in immunodeficient mice.)

Series [24] relates to NCI-H226. The series can be described thus: Antitumor activity against human NCI-H226 cells xenografted in CDX mouse model assessed as reduction in tumor growth at 30 mg/kg relative to control. It is filed as functional. Further details: scale not given: the % may be the effect or the level left.

Counter-ions that a name gives are not always drawn.

T1 sequence (P28347 whole entry, the tested form may be a part): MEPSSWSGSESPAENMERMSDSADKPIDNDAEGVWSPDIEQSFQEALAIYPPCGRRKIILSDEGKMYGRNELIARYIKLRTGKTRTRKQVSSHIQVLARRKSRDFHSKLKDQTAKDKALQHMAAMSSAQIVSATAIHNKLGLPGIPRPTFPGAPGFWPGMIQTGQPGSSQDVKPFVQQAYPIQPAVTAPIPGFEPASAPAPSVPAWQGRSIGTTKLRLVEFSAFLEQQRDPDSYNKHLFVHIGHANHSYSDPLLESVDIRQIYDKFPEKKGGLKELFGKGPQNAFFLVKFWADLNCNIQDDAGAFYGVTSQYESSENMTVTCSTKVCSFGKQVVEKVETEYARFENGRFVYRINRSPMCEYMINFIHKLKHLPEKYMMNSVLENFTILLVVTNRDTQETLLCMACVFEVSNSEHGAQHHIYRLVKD
T5 sequence (Q5VTY9 whole entry): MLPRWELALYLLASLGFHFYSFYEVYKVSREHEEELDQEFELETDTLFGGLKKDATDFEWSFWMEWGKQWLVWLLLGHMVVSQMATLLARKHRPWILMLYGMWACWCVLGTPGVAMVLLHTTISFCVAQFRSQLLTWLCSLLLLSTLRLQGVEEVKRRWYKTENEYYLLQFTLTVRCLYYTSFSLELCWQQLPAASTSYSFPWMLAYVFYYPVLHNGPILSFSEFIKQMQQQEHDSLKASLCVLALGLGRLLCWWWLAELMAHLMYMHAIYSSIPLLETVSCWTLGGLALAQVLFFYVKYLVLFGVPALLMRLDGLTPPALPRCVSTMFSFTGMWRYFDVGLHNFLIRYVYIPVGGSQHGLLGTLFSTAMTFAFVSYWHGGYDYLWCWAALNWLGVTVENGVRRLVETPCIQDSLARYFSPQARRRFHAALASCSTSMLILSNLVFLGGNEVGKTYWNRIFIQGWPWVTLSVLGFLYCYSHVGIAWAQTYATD
Chain of Tyrosine-protein kinase Lck (P06239 whole entry, canonical isoform): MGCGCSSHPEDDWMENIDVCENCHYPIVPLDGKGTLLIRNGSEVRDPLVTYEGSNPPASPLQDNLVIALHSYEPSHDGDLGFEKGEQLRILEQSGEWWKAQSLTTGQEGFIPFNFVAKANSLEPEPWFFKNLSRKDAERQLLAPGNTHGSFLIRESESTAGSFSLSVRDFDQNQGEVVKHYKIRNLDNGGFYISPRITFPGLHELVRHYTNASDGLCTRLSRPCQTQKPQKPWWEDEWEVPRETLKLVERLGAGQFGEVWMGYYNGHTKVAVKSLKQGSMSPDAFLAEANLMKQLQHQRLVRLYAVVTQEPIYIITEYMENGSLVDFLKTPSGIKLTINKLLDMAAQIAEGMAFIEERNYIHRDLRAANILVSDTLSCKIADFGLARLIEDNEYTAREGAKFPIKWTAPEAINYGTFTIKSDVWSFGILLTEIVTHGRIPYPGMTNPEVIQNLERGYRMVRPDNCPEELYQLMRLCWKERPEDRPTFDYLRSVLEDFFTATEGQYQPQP
Chain of Carnitine O-palmitoyltransferase 2, mitochondrial (P23786 whole entry, canonical isoform): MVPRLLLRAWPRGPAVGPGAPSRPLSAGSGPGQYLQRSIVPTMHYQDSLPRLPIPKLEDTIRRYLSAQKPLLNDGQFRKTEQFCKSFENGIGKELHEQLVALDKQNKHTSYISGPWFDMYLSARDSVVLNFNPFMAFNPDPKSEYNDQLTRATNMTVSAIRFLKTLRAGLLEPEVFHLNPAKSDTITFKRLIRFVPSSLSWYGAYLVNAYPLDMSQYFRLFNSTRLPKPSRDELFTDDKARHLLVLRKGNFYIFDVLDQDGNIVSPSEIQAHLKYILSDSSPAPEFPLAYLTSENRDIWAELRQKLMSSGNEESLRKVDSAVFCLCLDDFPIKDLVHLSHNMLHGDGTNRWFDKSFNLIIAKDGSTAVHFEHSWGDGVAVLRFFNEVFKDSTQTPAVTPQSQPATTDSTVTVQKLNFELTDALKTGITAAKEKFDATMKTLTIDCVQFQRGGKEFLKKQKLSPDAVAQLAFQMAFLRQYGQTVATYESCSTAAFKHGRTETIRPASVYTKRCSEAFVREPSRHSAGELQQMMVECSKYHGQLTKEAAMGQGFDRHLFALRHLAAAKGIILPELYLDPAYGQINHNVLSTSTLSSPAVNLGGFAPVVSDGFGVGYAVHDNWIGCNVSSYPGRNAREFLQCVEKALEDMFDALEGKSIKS
Chain of Serine palmitoyltransferase small subunit B (Q8NFR3 whole entry): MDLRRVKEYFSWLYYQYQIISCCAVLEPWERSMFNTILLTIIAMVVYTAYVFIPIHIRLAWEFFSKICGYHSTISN
Chain of Palmitoyltransferase ZDHHC7 (Q9NXF8 whole entry): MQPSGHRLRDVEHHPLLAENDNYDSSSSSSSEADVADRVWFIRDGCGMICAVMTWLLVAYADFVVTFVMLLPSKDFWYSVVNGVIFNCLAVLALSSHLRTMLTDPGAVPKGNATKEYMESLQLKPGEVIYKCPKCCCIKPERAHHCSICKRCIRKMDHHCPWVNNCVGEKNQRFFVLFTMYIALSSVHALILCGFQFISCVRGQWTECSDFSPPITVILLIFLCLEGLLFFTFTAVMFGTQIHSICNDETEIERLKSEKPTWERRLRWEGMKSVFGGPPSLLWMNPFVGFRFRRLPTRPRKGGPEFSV
Chain of Non-structural protein 4b (F5B4I0 whole entry, canonical isoform): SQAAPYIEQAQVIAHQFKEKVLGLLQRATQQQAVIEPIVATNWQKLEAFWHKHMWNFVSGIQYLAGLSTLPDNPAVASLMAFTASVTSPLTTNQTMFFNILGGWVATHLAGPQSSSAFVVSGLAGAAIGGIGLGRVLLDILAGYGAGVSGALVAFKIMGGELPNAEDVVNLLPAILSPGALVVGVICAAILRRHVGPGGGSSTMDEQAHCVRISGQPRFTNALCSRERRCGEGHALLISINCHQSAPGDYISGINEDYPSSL
Chain of Palmitoyltransferase ZDHHC3 (Q9NYG2 whole entry): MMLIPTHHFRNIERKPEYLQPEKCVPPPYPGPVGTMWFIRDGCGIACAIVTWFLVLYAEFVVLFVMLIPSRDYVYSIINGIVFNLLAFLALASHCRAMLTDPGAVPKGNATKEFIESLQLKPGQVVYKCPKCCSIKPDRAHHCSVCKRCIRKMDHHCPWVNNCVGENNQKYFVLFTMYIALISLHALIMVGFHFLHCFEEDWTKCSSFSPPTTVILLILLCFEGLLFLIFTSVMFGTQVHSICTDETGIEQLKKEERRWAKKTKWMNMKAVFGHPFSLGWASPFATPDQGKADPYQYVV

One may read the IC50 as the concentration that inhibits the measured activity by half. As to `C=CC(=O)N1CCC(CCOc2ccccc2)CC1`, the 50% inhibitory concentration (IC50) in series [1] worked out at 0.58 µM; in series [2] it was 0.61 µM.

Regarding `CC(C)(C)NC1CCN(c2cc(NCc3ccc(Cl)cc3)nc3ccccc23)CC1` [EZURPIMTROSTAT], in the series on LN-18, the IC50 came to 0.22 µM.

As to `CCCCCCOc1cccc(OCCCCNC(=O)N[C@H](CC(=O)[O-])C[N+](C)(C)C)c1`, the IC50 in series [3] was 0.13 µM; in [4] it was 5.44 µM.

For `COc1cccc2c1C(=O)c1c(O)c3c(c(O)c1C2=O)C[C@@](O)(C(=O)CO)C[C@@H]3O[C@H]1C[C@H](N)[C@H](O)[C@H](C)O1` [DOXORUBICIN HYDROCHLORIDE], the results for the IC50 in [5] and in series [6] were above 100 µM and 250 µM, respectively.

On to `CCCCCCCC(=O)CCCCCC/C=C/[C@H](C(=O)N[C@@H](Cc1ccc(O)cc1)C(=O)O)[C@@](O)(CC(=O)O)C(=O)O`, for which, in series [7], it took 0.022 µM to reach half-maximal inhibition (IC50).

Regarding `CCCCCCCCCCCCCCC(Br)C(=O)O` (centres undefined), in series [8], the IC50 came to 10 µM.

Usually Ki stands for a measure of affinity in units of concentration, obtained from inhibition or displacement. Turning to `CCCCCCCCCCCCCCCC1(O)C[C@H](CC(=O)[O-])C[N+](C)(C)C1` (single isomer, unassigned), the Ki in series [9] amounted to 4.2 µM.

By half-life is commonly meant the time in which the quantity being followed falls by half. Regarding `CNS(=O)(=O)c1ccc(Nc2ccc(C(F)(F)F)cc2)c(-c2cn(C)cn2)c1`, in [10], the half-life was 13.2 h.

The compound `CC(C)=CCC[C@]1(C)C=Cc2c(O)c3c(c(CC=C(C)C)c2O1)O[C@]12C(=C[C@@H]4C[C@H]1C(C)(C)O[C@@]2(C/C=C(/C)C(=O)O)C4=O)C3=O` [GAMBOGIC ACID] showed an IC50 in series [11] of 2.18 µM.

As to `CCCCCCCCCCCCCCC(Br)C(=O)SCCNC(C)=O` (centres undefined), the concentration for half-maximal inhibition (IC50) in [12] is around 50 µM; in series [13], 4.4 µM.

Usually inhibition stands for the percentage by which the read-out fell short of the control. `C=CC(=O)NCc1ccc(OC(=O)c2cccc(Oc3ccccc3)c2)cc1`: the 50% inhibitory concentration (IC50) in the series with MCF7 was found to be 50 µM. The compound also showed an inhibition in the series filed under Homo sapiens of 89.5%.

As to `CCC(C)CNCC(=O)N1CCc2sccc2C1COc1cccc(C)c1` (centres undefined), the Ki in series [14] worked out at 7.4 µM.

As for `CCC(C)CNCC(=O)N1CCc2sccc2C1c1cccc(C)c1` (centres undefined), the midpoint of inhibition in series [15], the IC50, lay at 0.46 µM.

Regarding `CNC(=O)c1ccc2c(c1)CC(=O)N2C1CCN(CC(=O)N2CC3CCCC3C2)CC1` (centres undefined), the figures for the IC50 in [16] and in [17] were 0.0273 µM and 9.5 µM, respectively.

For orientation: MIC means the least concentration at which growth counts as inhibited. Consider `CCCCCCCCCCCCOC(=O)[C@@H](N)CC(C)C`, for which the MIC in the series on Plasmodium falciparum was 0.78 mg/L.

Turning to `C/C(=C\CC12OC(C)(C)C3CC(C=C4C(=O)c5c(O)cccc5OC431)C2=O)COC(=O)c1cccnc1` (centres undefined), the IC50 in the series on CCF-STTG1 is 2.29 µM. Moreover, in series [18], the Ki was determined as 1.7 µM.

Consider `CC#CCOc1ccc(C[C@H](NC(=O)[C@@H](/C=C/CCCCCCC(=O)CCCCCCC)[C@@](O)(CC(C)=O)C(=O)O)C(=O)O)cc1`, for which the IC50 in [19] turned out to be 0.0189 µM.

Consider `CCCCCCCCCCCCCCNC(=O)N[C@H](CC(=O)[O-])C[N+](C)(C)C`, for which, in series [20], the IC50 came to 0.68 µM. Also, the inhibitory constant (Ki) in series [21] is 0.36 µM.

`C=C(F)C(=O)N1C[C@@H](Nc2ncccn2)[C@H](OCc2ccc(C(F)(F)F)cc2)C1`: the IC50 in [22] was found to be 0.011 µM. The Activity stood at 68% with NCI-H226 [23] and 54% with NCI-H226 [24].

These data come from ChEMBL document CHEMBL5523703, “Modulators for palmitoylation of proteins and small molecules” (Eur J Med Chem, 2024).
